Experimental data taken from US6610692B1, “Thrombin inhibitors” (Merck & Co., Inc., priority 1998, dated 2003).

Biological target: human α-thrombin (Homo sapiens, UniProt P00734)
Assay: In vitro assay for determining proteinase inhibition: thrombin (sar-PR-pna or Z-GPR-afc substrate)
Type: biochemical
Settings: not given
Procedure: In vitro Assay for Determining Proteinase Inhibition
The assays were carried out at 25° C. in 0.05 M TRIS buffer pH 7.4, 0.15 M NaCl, 0.1% PEG. Trypsin assays also contained 1 mM CaCl2.
Concentrations of stock solutions of Z-GPR-afc were determined from measurements of absorbance at 380 nm of the 7-amino-4-trifluoromethyl coumarin produced upon complete hydrolysis of an aliquot of the stock solution by thrombin.
Times required to achieve equilibration between enzyme and inhibitor were determined in control experiments. Initial velocities of product formation in the absence (Vo) or presence of inhibitor (Vi) were measured. Assuming competitive inhibition, and that unity is negligible compared Km/[S], [I]/e, and [I]/e (where [S], [I], and e respectively represent the total concentrations, of substrate, inhibitor and enzyme), the equilibrium constant (Ki) for dissociation of the inhibitor from the enzyme can be obtained from the dependence of Vo, Vi on [I] shown in equation 1: […]
`Cc1cnc(NCCc2ccccn2)c(=O)n1CC(=O)NCc1cnc2[nH]ccc2c1` gave a Ki of under 0.02 µM.

Same assay, conditions: Table 1; 25° C., 0.05 M TRIS buffer pH 7.4, 0.15 M NaCl, 0.1% PEG; read-out: Inhibitory activity (Ki)
In the case of `Cc1nc2[nH]nnc2cc1CNC(=O)Cn1c(C)cnc(NCCc2ccccc2)c1=O`, the Ki is reported as over 0.02 µM. `CCC[C@@H]1Cc2cc(C)n(CC(=O)NCc3ccc4[nH]ccc4c3)c(=O)c2NC1=O` showed a Ki of under 0.02 µM. Compound `Cc1cnc(NCCc2ccccc2)c(=O)n1CC(=O)NCc1cnc2[nH]nc(N)c2c1` has a Ki of over 0.02 µM. With `Cc1cnc(NCCc2ccccc2)c(=O)n1CC(=O)NCc1ccc2[nH]nnc2c1` the Ki was over 0.02 µM. Work on `Cc1cc2c(c(=O)n1CC(=O)NCc1ccc3[nH]ccc3c1)NC(=O)[C@H](CC1CCC1)C2` yielded a Ki of under 0.02 µM. `Cc1cnc(NCCc2ccc3c(c2)OCO3)c(=O)n1CC(=O)NCc1ccc2[nH]ccc2c1` showed a Ki of under 0.02 µM. `Cc1cnc(NCCc2cccnc2)c(=O)n1CC(=O)NCc1ccc2[nH]ccc2c1` gave a Ki of under 0.02 µM. Compound `Cc1cnc(NCCc2ccccn2)c(=O)n1CC(=O)NCc1ccc2c(cnn2C)c1` has a Ki of over 0.02 µM. With `Cc1cnc(NCCc2ccccc2)c(=O)n1CC(=O)NCc1ccc2c(cnn2C)c1` the Ki was over 0.02 µM. With `Cc1cnc(NCC(F)(F)c2ccccn2)c(=O)n1CC(=O)NCc1ccc2[nH]ccc2c1` the Ki was under 0.02 µM. For `Cc1cnc(NCCc2ccccc2)c(=O)n1CC(=O)NCc1ccc2[nH]nc(N)c2c1`, the Ki was over 0.02 µM. In the case of `Cc1cnc(NCCc2ccccn2)c(=O)n1CC(=O)NCc1ccc2[nH]ncc2c1`, the Ki is reported as under 0.02 µM. For `Cc1cnc(NCCc2ccc3c(c2)OCO3)c(=O)n1CC(=O)NCc1ccc2[nH]ncc2c1`, the Ki was under 0.02 µM. For `Cc1cnc(NCCc2ccccc2)c(=O)n1CC(=O)NCc1ccc2[nH]ncc2c1`, the Ki was under 0.02 µM. In the case of `Cc1cnc(NCCc2ccccc2)c(=O)n1CC(=O)NCc1cc2nc[nH]c2cn1`, the Ki is reported as over 0.02 µM. For `Cc1cc2c(c(=O)n1CC(=O)NCc1ccc3[nH]ccc3n1)NC(=O)[C@H](CC1CCC1)C2`, the Ki was under 0.02 µM. With `Cc1cc2c(c(=O)n1CC(=O)NCc1ccc3[nH]ncc3c1)NC(=O)[C@H](CC1CCC1)C2` the Ki was under 0.02 µM. `Cc1cc2c(c(=O)n1CC(=O)NCc1cnc3[nH]ccc3c1)NC(=O)[C@H](CC1CCC1)C2` showed a Ki of under 0.02 µM. For `Cc1cnc(NCC(F)(F)CC2CC2)c(=O)n1CC(=O)NCc1ccc2[nH]ccc2n1`, the Ki was under 0.02 µM. In the case of `Cc1cnc(NCC(F)(F)c2ccccc2)c(=O)n1CC(=O)NCc1ccc2[nH]ncc2c1`, the Ki is reported as under 0.02 µM. Work on `Cc1noc2ccc(CNC(=O)Cn3c(C)cnc(NCCc4ccccn4)c3=O)cc12` yielded a Ki of over 0.02 µM. With `Cc1cc(SCC2CCC2)c(N)c(=O)n1CC(=O)NCc1ccc2[nH]nc(N)c2c1` the Ki was over 0.02 µM. Compound `Cc1cnc(NCC(F)(F)c2ccccc2)c(=O)n1CC(=O)NCc1ccc2[nH]nc(N)c2c1` has a Ki of under 0.02 µM. `Cc1c(CNC(=O)Cn2c(C)cnc(NCCc3ccccc3)c2=O)cnc2[nH]ccc12` gave a Ki of over 0.02 µM. Work on `Cc1cnc(NCC(F)(F)c2ccccn2)c(=O)n1CC(=O)NCc1ccc2[nH]cnc2c1` yielded a Ki of under 0.02 µM. With `Cc1cnc(NCC(F)(F)c2ccccc2)c(=O)n1CC(=O)NCc1ccc2[nH]cnc2c1` the Ki was under 0.02 µM. `Cc1cnc(NCCc2ccccc2)c(=O)n1CC(=O)NCc1cnc2[nH]cnc2c1` showed a Ki of over 0.02 µM. With `Cc1cnc(NCC(F)(F)c2ccccc2)c(=O)n1CC(=O)NCc1cnc2[nH]cnc2c1` the Ki was under 0.02 µM. Compound `Cc1cnc(NCC(F)(F)c2ccccn2)c(=O)n1CC(=O)NCc1cnc2[nH]cnc2c1` has a Ki of under 0.02 µM. With `Cc1cc(SCC2CCC2)c(N)c(=O)n1CC(=O)NCc1cnc2[nH]cnc2c1` the Ki was over 0.02 µM. Compound `Cc1cc(SCC2CC2)c(N)c(=O)n1CC(=O)NCc1cnc2[nH]cnc2c1` has a Ki of over 0.02 µM. With `Cc1cc2c(c(=O)n1CC(=O)NCc1ccc3[nH]ccc3n1)NC(=O)[C@H](CC1CC1)C2` the Ki was under 0.02 µM. For `Cc1cc2c(c(=O)n1CC(=O)NCc1ccc3[nH]ccc3n1)NC(=O)[C@H](CC(C)C)C2`, the Ki was under 0.02 µM. `Cc1cc2c(c(=O)n1CC(=O)NCc1cc3cc[nH]c3cn1)NC(=O)[C@H](CC1CCC1)C2` gave a Ki of under 0.02 µM. `Cc1cnc(NCC(F)(F)c2ccccn2)c(=O)n1CC(=O)NCc1ccc2[nH]ccc2n1` showed a Ki of under 0.02 µM. Work on `Cc1cnc(NCC(F)(F)c2ccccc2)c(=O)n1CC(=O)NCc1cc2cc[nH]c2cn1` yielded a Ki of under 0.02 µM. For `Cc1nc2cc(CNC(=O)Cn3c(C)cnc(NCC(F)(F)c4ccccc4)c3=O)ccc2[nH]1`, the Ki was over 0.02 µM. `Cc1cc(SCC2CCC2)c(N)c(=O)n1CC(=O)NCc1ccc2[nH]cnc2c1` gave a Ki of under 0.02 µM. `Cc1cnc(NCCc2ccccc2)c(=O)n1CC(=O)NCc1cc2c(Cl)c[nH]c2cn1` gave a Ki of under 0.02 µM. `Cc1cc(SCC2CC2)c(N)c(=O)n1CC(=O)NCc1ccc2[nH]cnc2c1` showed a Ki of over 0.02 µM. Work on `Cc1cnc(NCCCCC2CC2)c(=O)n1CC(=O)NCc1cc2cc[nH]c2cn1` yielded a Ki of under 0.02 µM. For `Cc1cnc(NCC(F)(F)c2ccccn2)c(=O)n1CC(=O)NCc1cc2cc[nH]c2cn1`, the Ki was under 0.02 µM. Compound `Cc1cnc(NCCc2ccccn2)c(=O)n1CC(=O)NCc1cc2c(Cl)c[nH]c2cn1` has a Ki of under 0.02 µM. `Cc1cnc(NCC2(c3ccccn3)CC2)c(=O)n1CC(=O)NCc1ccc2[nH]ccc2c1` [drawing 16] gave a Ki of under 0.02 µM. With `Cc1cnc(NCC2(c3ccccn3)CC2)c(=O)n1CC(=O)NCc1ccc2[nH]cnc2c1` [drawing 18] the Ki was under 0.02 µM. With `Cc1cc2[nH]cnc2cc1CNC(=O)Cn1c(C)cnc(NCCc2ccccn2)c1=O` [drawing 19] the Ki was over 0.02 µM. `Cc1cc2[nH]cnc2cc1CNC(=O)Cn1c(C)cnc(NCC2(c3ccccn3)CC2)c1=O` [drawing 20] gave a Ki of under 0.02 µM. `Cc1cnc(NCCc2ccccn2)c(=O)n1CC(=O)NCc1ccc2[nH]cc(Cl)c2c1` [drawing 38] showed a Ki of under 0.02 µM. With `Cc1cnc(NCCc2ccccc2)c(=O)n1CC(=O)NCc1ccc2[nH]cc(Cl)c2c1` [drawing 39] the Ki was under 0.02 µM.

Test system: not given
Assay: not given
Settings: not given
`Cc1cc2[nH]cnc2cc1CNC(=O)Cn1c(C)cnc(NCCc2ccccn2)c1=O` [Example 33, 3-[2-(2-Pyridyl)ethylamino]-6-methyl-1-(5-methylenecarboxamidomethyl-6-methylbenzimidazolyl)-pyrazinone] gave a melting point of 175 to 184 °C. Work on `Cc1cc2[nH]cnc2cc1CNC(=O)Cn1c(C)cnc(NCC2(c3ccccn3)CC2)c1=O` [Example 34, 3-[1-(2-Pyridyl)-cyclopropylmethylamino]-6-methyl-1-(5-methylenecarboxamidomethyl-6-methylbenzimidazolyl)-pyrazinone] yielded a melting point of 146 to 154 °C. `Cc1cnc(NCCc2ccccn2)c(=O)n1CC(=O)NCc1ccc2[nH]cc(Cl)c2c1` [Example 35, 3-[2-(2-Pyridyl)ethylamino]-6-methyl-1-(3-chloro-5-methylene-carboxamidomethylindolyl)-pyrazinone] gave a melting point of 224 to 226 °C. `Cc1cnc(NCCc2ccccc2)c(=O)n1CC(=O)NCc1ccc2[nH]cc(Cl)c2c1` [Example 36, 3-(2-Phenethylamino)-6-methyl-1-(3-chloro-5-methylenecarboxamidomethylindolyl)-pyrazinone] gave a melting point of 223 to 226 °C. With `Cc1cnc(NCC2(c3ccccn3)CC2)c(=O)n1CC(=O)NCc1ccc2[nH]ccc2c1` [Example 39, 3-[1-(2-Pyridyl)cyclopropylmethylamino]-6-methyl-1-(5-methylenecarboxamidomethylindolyl)-pyrazinone] the melting point was 212 to 215 °C. Work on `Cc1cnc(NCC2(c3ccccn3)CC2)c(=O)n1CC(=O)NCc1ccc2[nH]cnc2c1` [Example 41, 3-[1-(2-Pyridyl)cyclopropylmethylamino]-6-methyl-1-(5-methylenecarboxamidomethyl-benzimidazolyl)-pyrazinone] yielded a melting point of 134 to 139 °C.
